tested on: G. duodenalis BRIS/91/HEPU/1279; assay: Primary Giardia screen at 10 µM (live-cell imaging, automated counting); format: cell-based, Giardia duodenalis; conditions: 24 h
Method in brief: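 Percent growth versus 0.2% DMSO vehicle, background-corrected with media-only wells, is reported at 24 and 48 h from automated live-cell counts. Testing used 10 μM final in a 3% O2 atmosphere, with plate quality checked by Z' factor.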

SMILES	Average % Inhibition 24h [%]
O=C(NCC1(c2ccccc2)CCOCC1)c1ccc(Br)cc1 [SN00783501]	8.8
Fc1cccc(Nc2c3c(nc4ccccc24)CCC3)c1 [SN00784170]	2.3

same assay, conditions: 24 h, first singlicate assay

SMILES	% Inhibition n=1 24h [%]
O=C(NCC1(c2ccccc2)CCOCC1)c1ccc(Br)cc1 [SN00783501]	16.8
Fc1cccc(Nc2c3c(nc4ccccc24)CCC3)c1 [SN00784170]	4.6

same assay, conditions: 24 h, re-assessment

SMILES	% Inhibition n=2 24h [%]
O=C(NCC1(c2ccccc2)CCOCC1)c1ccc(Br)cc1 [SN00783501]	0.9
Fc1cccc(Nc2c3c(nc4ccccc24)CCC3)c1 [SN00784170]	0.0

same assay, conditions: 48 h

SMILES	Average % Inhibition 48h [%]
O=C(NCC1(c2ccccc2)CCOCC1)c1ccc(Br)cc1 [SN00783501]	37.7
Fc1cccc(Nc2c3c(nc4ccccc24)CCC3)c1 [SN00784170]	55.5

same assay, conditions: 48 h, first singlicate assay

SMILES	% Inhibition n=1 48h [%]
O=C(NCC1(c2ccccc2)CCOCC1)c1ccc(Br)cc1 [SN00783501]	61.1
CCOC(=O)c1sc2nc(C)nc(N3CCCCC3C)c2c1C (centres unmarked) [SN00783508]	0.0
COc1cc(C(=O)NCC2(c3ccccc3)CCOCC2)cc(OC)c1OC [SN00783529]	6.5
CC(=O)Oc1ccc(C(=O)Nc2ccc3nc(-c4ccc(Cl)cc4)oc3c2)cc1 [SN00783571]	0.0
CC1=NN(C(=O)COc2ccc(C)c(C)c2)C(O)(C(F)(F)F)C1 (centres unmarked) [SN00783577]	0.0
CC(NC(=O)Cn1nc(-c2ccccc2)c2ccccc2c1=O)c1ccccc1 (centres unmarked) [SN00783639]	3.0
O=C(O)c1cccc(Nc2nc(Nc3ccccc3)nc(N3CCCC3)n2)c1 [SN00783666]	0.3
Cc1cc(Cl)ccc1OCCCC(=O)Nc1nc2ccccc2[nH]1 [SN00783684]	27.8
Cc1ccc(-c2cc(C(=O)N3CC(C)CC(C)C3)c3ccccc3n2)o1 (centres unmarked) [SN00783691]	7.2
Cc1c(CN(C)C(=O)c2cc3nc(-c4cccs4)cc(C(F)(F)F)n3n2)cnn1C [SN00783696]	0.0
Cc1ccc(-c2cc(C(=O)NCc3cn(C)nc3C)c3ccccc3n2)cc1C [SN00783737]	0.0
CCCNC(=O)c1cnn2c(C(F)F)cc(-c3ccc(C)cc3)nc12 [SN00783826]	40.8
Cc1ccc(-c2cc(C(F)F)n3ncc(C(=O)NCc4cnn(C)c4C)c3n2)cc1 [SN00783829]	0.0
CCn1cc(CN(C)C(=O)c2cnn3c(C(F)F)cc(-c4ccc(OC)cc4)nc23)c(C)n1 [SN00783837]	29.0
Cc1coc(C)c1C(=O)CC1(O)C(=O)Nc2ccccc21 (centres unmarked) [SN00783840]	0.0
CCOC(=O)c1c(NC(=O)CN2C(=O)COc3ccc(Cl)cc32)sc2c1CCCC2 [SN00783847]	26.0
CCCN(c1ccccc1C(=O)O)S(=O)(=O)c1ccc2[nH]c(=O)[nH]c2c1 [SN00783856]	12.1
COc1ccc(OCCn2c(NC(=O)c3ccc(OC)cc3)nc3ccccc32)cc1 [SN00783884]	19.5
O=C(Cn1cnc([N+](=O)[O-])n1)NCCc1ccccc1 [SN00783937]	33.8
COc1ccc(C2NC(C(=O)O)Cc3c2[nH]c2ccccc32)c(OC)c1 (centres unmarked) [SN00783957]	5.0
CCOc1cc2c(cc1OCC)-n1cccc1C(c1cccc([N+](=O)[O-])c1)NC2 (centres unmarked) [SN00783996]	10.3
COc1cc(CNCCNC(=O)c2nonc2N)ccc1OCc1ccc(F)cc1 [SN00784068]	0.0
COC(=O)C1=C(C)N(C(C)C)C(=O)C1(NC(=O)C1CCCCC1)C(F)(F)F (centres unmarked) [SN00784094]	0.0
COc1cccc(C(=O)NC2(C(F)(F)F)C(=O)N(Cc3ccccc3)C(C)=C2C(C)=O)c1 (centres unmarked) [SN00784101]	2.9

SMILES	% Inhibition n=1 48h [%]
CN(CCc1ccccn1)C(=O)c1cc2nc(-c3ccc(Cl)cc3)cc(C(F)(F)F)n2n1 [SN00784121]	0.0
O=C(Nc1cccc(C(F)(F)F)c1)c1cnn2c(C(F)(F)F)cc(-c3ccco3)nc12 [SN00784128]	9.2
Fc1cccc(Nc2c3c(nc4ccccc24)CCC3)c1 [SN00784170]	66.2
CCCCN(CCCNC(=O)c1c(C)oc2nc[nH]c(=O)c12)Cc1ccccc1 [SN00784186]	16.8
CN1C(=O)c2cc(NC(=O)c3ccc4c(c3)OCO4)ccc2N2CCN=C12 [SN00784190]	31.6
Fc1ccc(-c2cc(C(F)(F)F)nc(NCc3ccco3)n2)cc1 [SN00784252]	2.3
CCOC(=O)N1CCN(c2nc(-c3cccs3)cc(C(F)(F)F)n2)CC1 [SN00784268]	21.6
CC(C)CCNC(=O)C1CCCCN1S(=O)(=O)c1ccc(F)cc1 (centres unmarked) [SN00784282]	5.5
O=C(NCCCN1CCCCC1)c1cc(-c2cccs2)nc2ccccc12 [SN00784290]	13.3
O=c1c2cccnc2n(Cc2cc(=O)n3ccccc3n2)c(=O)n1CCc1ccccc1 [SN00784337]	7.3
CCOc1ccc(NS(=O)(=O)c2cc(C(=O)Nc3cc(C)ccc3C)[nH]n2)cc1 [SN00784397]	15.3
Cc1ccc2c(=O)c(C(=O)N3CCSCC3)c[nH]c2n1 [SN00784417]	11.0
CCCNC(=O)c1cc(-c2ccc(F)cc2)on1 [SN00784460]	0.0
COc1ccc(CCNC(=O)c2cc(-c3cccs3)on2)cc1OC [SN00784489]	33.2
O=C(Nc1cccc(O)c1)c1cc(-c2cccnc2)on1 [SN00784502]	24.5
O=C(NCc1ccc(Cl)cc1)c1noc2c1CCCC2 [SN00784503]	0.0
O=C1C2C(c3ccc(F)cc3)NC(Cc3ccccc3)(C(=O)O)C2C(=O)N1c1ccc(F)cc1 (centres unmarked) [SN00784528]	0.7
COc1ccc(-c2nc3sccn3c2Nc2ccc3c(c2)OCO3)cc1 [SN00784546]	0.0
CC(C)CCNC(=O)C1(C)CCC(=O)N1CCCN1CCN(c2cccc(Cl)c2)CC1 (centres unmarked) [SN00784585]	25.4
Cc1ccc(CNC(=O)C2(S(=O)(=O)c3ccc(Cl)cc3)CC2)cc1 [SN00784605]	11.5
O=C(N1CCN(c2cccc(Cl)c2)CC1)C1(S(=O)(=O)c2ccc(Cl)cc2)CC1 [SN00784607]	0.0
CCOc1ccc(-n2c(=O)c3c4c(sc3n(Cc3cccnc3)c2=O)CCC4)cc1 [SN00784617]	0.0
COc1ccc(N2C(=O)NC3CC2(C)Oc2ccc(OC)cc23)cc1 (centres unmarked) [SN00784647]	11.2
COc1cc(C(=O)N2C(=O)N(c3ccc(F)cc3)C3(C)CC2c2ccccc2O3)cc(OC)c1OC (centres unmarked) [SN00784661]	3.1

SMILES	% Inhibition n=1 48h [%]
CC12CC(c3ccccc3O1)N(C(=O)c1cccc(F)c1)C(=O)N2c1ccccc1 (centres unmarked) [SN00784677]	0.0
Clc1ccc(Nc2nc3ccccc3n3nnnc23)cc1 [SN00784679]	4.0
Cc1cccc(NC(=O)CN2CC(c3ccccc3)CC2=O)c1 (centres unmarked) [SN00784702]	10.4
Cc1ccc(NC(=O)CN2CC(c3ccccc3)CC2=O)c(C)c1 (centres unmarked) [SN00784704]	6.2
O=C(NCCc1ccccc1)c1ccc(Nc2nc3ccccc3n3nnnc23)cc1 [SN00784739]	8.5
Cc1ccc(S(=O)(=O)Nc2cc3c(cc2NCc2ccccc2)n(C)c(=O)n3C)cc1 [SN00784759]	14.3
COc1ccc(S(=O)(=O)Nc2cc3c(cc2NCc2ccccc2)n(C)c(=O)n3C)cc1OC [SN00784765]	14.1
O=C(Nc1ccccc1)NC(c1ccccc1)c1nnc(-c2ccccc2Cl)o1 (centres unmarked) [SN00784775]	0.0
O=C(CN1CCN(Cc2ccccc2)C1=O)NCc1ccc(Cl)cc1 [SN00784814]	0.0
CC(=O)c1cccc(NS(=O)(=O)c2c(C)n[nH]c2C)c1 [SN00784818]	5.0
Cc1ccc(NS(=O)(=O)c2c(C)n[nH]c2C)cc1 [SN00784820]	8.8
Cc1cc(NC(=O)C2CCN(S(=O)(=O)c3c(C)n[nH]c3C)CC2)ccc1Br [SN00784824]	11.8
CSCCC1COC(c2cccn2C)=N1 (centres unmarked) [SN00784837]	0.0
COc1ccc(Cn2cccc2C2=NC(C)(C)CO2)cc1 [SN00784853]	19.2
CSc1cccc(NC(=O)CN2C(=O)C(C)N=C(c3ccccc3)c3ccccc32)c1 (centres unmarked) [SN00784896]	0.0
CCN1CCN(C(=O)c2ccc(N3CCCC3=O)cc2)CC1 [SN00784919]	8.8
CCCCNC(=O)c1cccc(N2CCCC2=O)c1 [SN00784930]	4.7
Cc1nc(N(C)C)ncc1C(=O)O [SN00784957]	3.0
CC(=O)c1cccc(NC(=O)C2CCCN(S(=O)(=O)c3c(C)noc3C)C2)c1 (centres unmarked) [SN00784980]	0.0
CCc1cccc(NC(=O)C2CCCN(S(=O)(=O)c3c(C)noc3C)C2)c1 (centres unmarked) [SN00784983]	0.0
COc1ccc(-n2nc(C(=O)NCc3ccc(C)cc3)c3c4ccccc4n(C)c3c2=O)cc1 [SN00785076]	5.1
CCCN1C(=O)c2cc(C(=O)Nc3ccc(F)cc3)ccc2C1Nc1ccc(F)cc1 (centres unmarked) [SN00785169]	13.3

same assay, conditions: 48 h, re-assessment

SMILES	% Inhibition n=2 48h [%]
O=C(NCC1(c2ccccc2)CCOCC1)c1ccc(Br)cc1 [SN00783501]	14.4
Fc1cccc(Nc2c3c(nc4ccccc24)CCC3)c1 [SN00784170]	44.9

Source: article PMC9775191, “A Subset Screen of the Compounds Australia Scaffold Library Identifies 7-Acylaminodibenzoxazepinones as Potent and Selective Hits for Anti-Giardia Drug Discovery” (Biomedicines, 2022)
